Source: US12491170B2, “Stable treprostinil prodrugs” (United Therapeutics Corporation, priority 2020, dated 2025)

What was measured:
[1] = molecular target: prostaglandin I2 (PGI2) receptor (IP) (Homo sapiens, UniProt P43119); assay: IP receptor cAMP agonist assay (CHO-K1 cells); type: cell-based; settings: Table 22; relative to treprostinil EC50 values; * partial agonists or ambiguous dose-response curves
Method: (§1) Cyclic AMP assay kit: Multiscreen™ TR-FRET cAMP 1.0 No Wash Assay Kit (Multispan, Inc.)
(§2) Cells were thawed from frozen cells and resuspended in assay buffer at desired concentrations. cAMP or Calcium assays were performed according to the manufacturer's protocol using Multiscreen™ TR-FRET cAMP 1.0 No Wash Assay Kit or Multiscreen™ Calcium 1.0 No Wash Kit.
(§3) Gas Cyclic AMP (cAMP) Assay: In agonist mode testing, cells were seeded in a 384-well plate at an appropriate density and then were treated with compounds and incubated at 37° C. for 20 minutes. The reaction was terminated by […] trFluor™ Eu-labeled cAMP and trFluor™ 650-labeled anti-cAMP antibody in lysis buffer. […] All testing wells contained 0.1% DMSO in the final concentrations.
(§4) Data in graphs are represented in Mean±SD. Dose-dependent responses were fitted with sigmoidal dose-response curves allowing variable slopes using GraphPad Prism version 6 (Graphpad Prism).
(§5) These studies used cell lines overexpressing either human IP, EP2 or DP1, or EP1 receptors, and following incubation with varying concentrations of compounds, cAMP levels were measured using Fluorescence Resonance Energy Transfer (FRET).

[2] = molecular target: T1, prostaglandin D2 (PGD2) receptor 1 (DP1) (Homo sapiens, UniProt Q13258); assay: DP1 receptor cAMP agonist assay (HEK293T cells); type: cell-based; settings: Table 22; relative to treprostinil EC50 values; * partial agonists or ambiguous dose-response curves
T1 sequence (Q13258 1-359): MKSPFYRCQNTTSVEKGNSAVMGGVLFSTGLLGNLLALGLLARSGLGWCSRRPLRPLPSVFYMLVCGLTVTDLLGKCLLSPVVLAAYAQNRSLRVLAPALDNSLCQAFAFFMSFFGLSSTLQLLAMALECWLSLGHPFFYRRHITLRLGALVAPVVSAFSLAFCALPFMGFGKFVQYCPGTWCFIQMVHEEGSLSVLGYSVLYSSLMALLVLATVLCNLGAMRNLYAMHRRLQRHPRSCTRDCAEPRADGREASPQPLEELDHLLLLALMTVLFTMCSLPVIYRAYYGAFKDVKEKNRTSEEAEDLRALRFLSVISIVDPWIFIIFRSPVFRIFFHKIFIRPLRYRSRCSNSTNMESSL
Method: as §1, §2, §3, §4, §5

[3] = molecular target: prostaglandin E2 (PGE2) receptor 2 (EP2) (Homo sapiens, UniProt P43116); assay: EP2 receptor cAMP agonist assay (HEK293T cells); type: cell-based; settings: Table 22; relative to treprostinil EC50 values; * partial agonists or ambiguous dose-response curves
Method: as §1, §2, §3, §4, §5

[4] = molecular target: T2, PGE2 receptor 1 (EP1) (Homo sapiens, UniProt P34995); assay: EP1 receptor calcium agonist assay (HEK293T cells); type: cell-based; settings: Table 22; relative to treprostinil EC50 values; * partial agonists or ambiguous dose-response curves
T2 sequence (P34995 1-402): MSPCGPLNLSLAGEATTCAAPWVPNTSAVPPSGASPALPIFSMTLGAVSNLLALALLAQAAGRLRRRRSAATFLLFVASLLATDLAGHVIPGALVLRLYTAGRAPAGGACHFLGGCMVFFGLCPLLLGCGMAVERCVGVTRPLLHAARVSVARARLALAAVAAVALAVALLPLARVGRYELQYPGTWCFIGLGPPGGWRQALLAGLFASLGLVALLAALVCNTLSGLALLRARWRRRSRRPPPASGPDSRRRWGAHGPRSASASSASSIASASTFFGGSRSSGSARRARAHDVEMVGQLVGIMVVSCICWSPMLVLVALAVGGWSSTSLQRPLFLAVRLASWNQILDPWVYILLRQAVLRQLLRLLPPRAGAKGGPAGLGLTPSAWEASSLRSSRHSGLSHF
Method: Calcium assay kit: Multiscreen™ Calcium 1.0 No Wash Kit (Multispan, Inc., Cat #MSCA01-1)
• EP1 Calcium and DP1 cAMP Assays: HBSS plus 20 mM HEPES • EP2 and IP1 cAMP Assays: 1 mM IBMX in HBSS plus 20 mM HEPES Instruments: FlexStation III (Molecular Devices) and FLIPR 384 (Molecular Devices)
as §2
Calcium Assay: Cells were seeded in a 384-well plate at an appropriate density. The calcium assay was conducted according to the manufacturer's protocols (Multiscreen Calcium 1.0 No Wash Assay Kit). The calcium dye loading buffer was added to the cells and incubated for 1 hour at 37° C. For agonist mode, cells were injected with Iloprost control agonist or test compound by FLIPR and calcium mobilization was monitored for 180 seconds with compound injected into the wells at the 19th second. Fluorescent emissions were read at 525 nm with excitation at 490 nm in a FLIPR 384 instrument (Molecular Devices).
Calcium Assay: Calcium assay results are expressed as “RFU” as defined in figure below. Data are represented in Mean±SEM. Dose-response curves were fitted using “Sigmoidal dose-response (variable slope)” function in GraphPad Prism 6. EC50 values were calculated based on the fitted curves.
Prostaglandin receptor activity assessments with treprostinil and treprostinil analogues have been conducted, and a historical, positive control agonist for these receptors, iloprost (for IP, EP2 and EP1) or PGD2 (for DP1), was also included. These studies used cell lines overexpressing either human IP, EP2 or DP1, or EP1 receptors, and following incubation with varying concentrations of compounds, cAMP levels were measured using Fluorescence Resonance Energy Transfer (FRET). The 665/620 (acceptor/donor emission signals) ratio is inversely proportional to the concentration of cAMP.

[5] = Hydrolysis of prodrugs to treprostinil at pH 6, 7, 8 and 40 C; type: physicochemical
Text: Tables 24, 25 and 26 present data for hydrolysis of selected treprostinil prodrugs at pH 6, 7 and 8, respectively, and 40 C.

[6] = regardless of the route of administration; cited from earlier work
[7] = oral delivery, animal studies; cited from earlier work

prostaglandin E2 (PGE2) receptor 2 (EP2), sequence (P43116 whole entry): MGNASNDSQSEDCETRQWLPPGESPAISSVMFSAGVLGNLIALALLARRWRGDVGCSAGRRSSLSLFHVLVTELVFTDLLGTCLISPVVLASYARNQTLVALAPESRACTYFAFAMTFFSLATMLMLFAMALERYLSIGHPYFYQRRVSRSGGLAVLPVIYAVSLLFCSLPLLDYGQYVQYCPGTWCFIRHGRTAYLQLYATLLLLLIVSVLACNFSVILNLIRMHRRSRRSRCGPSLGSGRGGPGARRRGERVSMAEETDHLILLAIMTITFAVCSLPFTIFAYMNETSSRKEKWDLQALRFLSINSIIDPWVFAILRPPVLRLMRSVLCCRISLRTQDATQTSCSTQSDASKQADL
prostaglandin I2 (PGI2) receptor (IP), sequence (P43119 whole entry): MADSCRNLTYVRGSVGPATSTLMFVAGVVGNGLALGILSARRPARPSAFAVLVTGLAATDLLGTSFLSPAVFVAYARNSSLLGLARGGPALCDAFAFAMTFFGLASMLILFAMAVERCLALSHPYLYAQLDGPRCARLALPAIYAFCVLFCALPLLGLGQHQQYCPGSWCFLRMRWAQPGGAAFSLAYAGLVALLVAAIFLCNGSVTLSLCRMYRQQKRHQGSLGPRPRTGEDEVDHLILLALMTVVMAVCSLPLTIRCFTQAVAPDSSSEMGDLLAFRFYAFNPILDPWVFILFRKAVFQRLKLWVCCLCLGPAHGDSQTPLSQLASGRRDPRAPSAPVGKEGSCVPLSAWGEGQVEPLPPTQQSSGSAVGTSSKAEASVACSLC

For `CCCCCC(CCC1C(O)CC2Cc3c(cccc3OCC(=O)O)CC21)OCOC(=O)C(C)(C)C` (stereo not drawn) [Prodrug LII], the “IP Relative to Tre” value [1] was 527x, the “DP1 Relative to Tre” value [2] was 73x and the “EP2 Relative to Tre” value [3] was 26x. For the same compound, the “EP1 Relative to Tre” value [4] was 133x*.
With `CCCCCC(CCC1C(O)CC2Cc3c(cccc3OCC(=O)O)CC21)OC(=O)COc1ccc(OC(F)(F)F)cc1` (stereo not drawn) [Prodrug LXIV] the “IP Relative to Tre” value [1] was 162x*, the “DP1 Relative to Tre” value [2] was 38x and the “EP2 Relative to Tre” value [3] was 24x*. For the same compound, the “EP1 Relative to Tre” value [4] was 0.03x*, the “Hydrolysis to treprostinil, % Area, t = 1 week” value (shortened to “Hydrolysis … % Area, t = 1 week”) ([5]; pH 6, 40 C.) was 0.72 % Area and the “Hydrolysis to treprostinil, % Area, t = 2 weeks” value (shortened to “Hydrolysis … % Area, t = 2 weeks”) ([5]; pH 6, 40 C.) was 1.2 % Area. The “Hydrolysis to treprostinil, % Area, t = 3 weeks” value (“Hydrolysis … % Area, t = 3 weeks” below) ([5]; pH 6, 40 C.) was 1.5 % Area, the “Hydrolysis … % Area, t = 1 week” value ([5]; pH 7, 40 C.) was 0.46 % Area and the “Hydrolysis … % Area, t = 2 weeks” value ([5]; pH 7, 40 C.) was 0.93 % Area. The “Hydrolysis … % Area, t = 3 weeks” value ([5]; pH 7, 40 C.) was 1.2 % Area, the “Hydrolysis … % Area, t = 1 week” value ([5]; pH 8, 40 C.) was 1.8 % Area and the “Hydrolysis … % Area, t = 2 weeks” value ([5]; pH 8, 40 C.) was 3.9 % Area. For the same compound, the “Hydrolysis … % Area, t = 3 weeks” value ([5]; pH 8, 40 C.) was 5.8 % Area.
In the case of `CCCCCC(CCC1C(O)CC2Cc3c(cccc3OCC(=O)O)CC21)OC(=O)COc1ccccc1` (stereo not drawn) [Prodrug LXV], the “IP Relative to Tre” value [1] is reported as 599x, the “DP1 Relative to Tre” value [2] is reported as 89x and the “EP2 Relative to Tre” value [3] is reported as 187x*. The “EP1 Relative to Tre” value [4] was 64x*, the “Hydrolysis … % Area, t = 1 week” value ([5]; pH 6, 40 C.) was 0.13 % Area and the “Hydrolysis … % Area, t = 2 weeks” value ([5]; pH 6, 40 C.) was 0.29 % Area. For the same compound, the “Hydrolysis … % Area, t = 3 weeks” value ([5]; pH 6, 40 C.) was 0.39 % Area, the “Hydrolysis … % Area, t = 1 week” value ([5]; pH 7, 40 C.) was 0.96 % Area and the “Hydrolysis … % Area, t = 2 weeks” value ([5]; pH 7, 40 C.) was 1.9 % Area. The “Hydrolysis … % Area, t = 3 weeks” value ([5]; pH 7, 40 C.) was 2.7 % Area, the “Hydrolysis … % Area, t = 1 week” value ([5]; pH 8, 40 C.) was 6.0 % Area and the “Hydrolysis … % Area, t = 2 weeks” value ([5]; pH 8, 40 C.) was 11.4 % Area. The “Hydrolysis … % Area, t = 3 weeks” value ([5]; pH 8, 40 C.) was 16.9 % Area.
In the case of `CCCCC[C@H](O)CC[C@@H]1[C@H]2Cc3cccc(OCC(=O)OCC)c3C[C@H]2C[C@H]1O` [Treprostinil ethyl ester, reference compound], the “IP Relative to Tre” value [1] is reported as 535x, the “DP1 Relative to Tre” value [2] is reported as 18x and the “EP2 Relative to Tre” value [3] is reported as 11x. The “EP1 Relative to Tre” value [4] was 30x.
For `CCCCC[C@H](O)CC[C@@H]1[C@H]2Cc3cccc(OCC(=O)O)c3C[C@H]2C[C@H]1O` [Treprostinil], the half-life once absorbed [6] is listed as “about 1 hour” and the first-pass effect [7] is listed as “approximately 60%”.
